Source: ChEMBL document CHEMBL5528042, “Identification of Novel, Selective Ataxia-Telangiectasia Mutated Kinase Inhibitors with the Ability to Penetrate the Blood-Brain Barrier: The Discovery of AZD1390” (J Med Chem, 2024)
≈ marks a conversion by molar mass, not a printed value.

Biological target: Serine/threonine-protein kinase mTOR (Homo sapiens, UniProt P42345)
Assay: Inhibition of mTOR in human MDA-MB-468 cells incubated for 2.5 hrs by Alexa Fluor 488 staining based fluorescence analysis
Assay type: cell-based
Settings: not given

| Compound | IC50 |
| --- | --- |
| CC(C)n1c(=O)n(C)c2cnc3cc(F)c(-c4ccc(OCCCN(C)C)nc4)cc3c21 | > 31.6 µM |
| CO[C@H]1C[C@H](n2c(=O)n(C)c3cnc4ccc(-c5ccc(OCCCN6CCCCC6)nc5)cc4c32)C1 | > 1.26 µM |
| COCc1ccc(-c2ccc3ncc4c(c3c2)n([C@@H]2CCOCC2(C)C)c(=O)n4C)cn1 | 0.501 µM |
| CC(C)n1c(=O)n(C)c2cnc3cc(F)c(-c4ccc(OCCCN5CCCCC5)nc4)cc3c21 [AZD-1390] | > 15.8 µM |

Tested on: not listed separately
Assay: Apparent permeability across apical to basolateral side in dog MDCKII-MDR1 cells overexpressing BCRP at 1 uM incubated for 90 mins by LC-MS/MS analysis
Assay type: ADME, cell-based, Canis lupus familiaris, MDCK-MDR1
Settings: not given

| Compound | Papp A→B at […], 1 µM |
| --- | --- |
| CC(C)n1c(=O)n(C)c2cnc3cc(F)c(-c4ccc(OCCCN(C)C)nc4)cc3c21 | 56 ×10⁻⁶ cm/s |
| CC(C)n1c(=O)n(C)c2cnc3cc(F)c(-c4ccc(OCCCN5CCCCC5)nc4)cc3c21 [AZD-1390] | 24 ×10⁻⁶ cm/s |

Tested on: not listed separately
Assay: Intrinsic clearance in rat hepatocyte assessed per 10^6 cells
Assay type: ADME, cell-based
Settings: hepatocytes, read-out: CLH

| Compound | hepatocyte CLint |
| --- | --- |
| CC(C)n1c(=O)n(C)c2cnc3cc(F)c(-c4ccc(OCCCN(C)C)nc4)cc3c21 | 13 µL/min/1e6 cells |
| CO[C@H]1C[C@H](n2c(=O)n(C)c3cnc4ccc(-c5ccc(OCCCN6CCCCC6)nc5)cc4c32)C1 | 6.6 µL/min/1e6 cells |
| COCc1ccc(-c2ccc3ncc4c(c3c2)n([C@@H]2CCOCC2(C)C)c(=O)n4C)cn1 | 12 µL/min/1e6 cells |

Tested on: not listed separately
Assay: Volume of distribution at steady state in dog at 2 mg/kg,po or 1 mg/kg,iv administration measured for 24 hrs by LC-MS/MS analysis
Assay type: ADME, organism-based, Canis lupus familiaris
Settings: in vivo

| Compound | Vdss |
| --- | --- |
| CC(C)n1c(=O)n(C)c2cnc3cc(F)c(-c4ccc(OCCCN(C)C)nc4)cc3c21 | 18 L/kg |
| COCc1ccc(-c2ccc3ncc4c(c3c2)n([C@@H]2CCOCC2(C)C)c(=O)n4C)cn1 | 3.7 L/kg |
| CC(C)n1c(=O)n(C)c2cnc3cc(F)c(-c4ccc(OCCCN5CCCCC5)nc4)cc3c21 [AZD-1390] | 24 L/kg |

Tested on: not listed separately
Assay: Bioavailability in dog at 2 mg/kg,po or 1 mg/kg,iv administration measured for 24 hrs by LC-MS/MS analysis
Assay type: ADME, organism-based, Canis lupus familiaris
Settings: in vivo

| Compound | bioavailability |
| --- | --- |
| CC(C)n1c(=O)n(C)c2cnc3cc(F)c(-c4ccc(OCCCN(C)C)nc4)cc3c21 | 31% |
| COCc1ccc(-c2ccc3ncc4c(c3c2)n([C@@H]2CCOCC2(C)C)c(=O)n4C)cn1 | 9% |
| CC(C)n1c(=O)n(C)c2cnc3cc(F)c(-c4ccc(OCCCN5CCCCC5)nc4)cc3c21 [AZD-1390] | 66% |

Tested on: not listed separately
Assay: Half life in dog at 2 mg/kg,po or 1 mg/kg,iv administration measured for 24 hrs by LC-MS/MS analysis
Assay type: ADME, organism-based, Canis lupus familiaris
Settings: in vivo

| Compound | half-life |
| --- | --- |
| CC(C)n1c(=O)n(C)c2cnc3cc(F)c(-c4ccc(OCCCN(C)C)nc4)cc3c21 | 6.4 h |
| COCc1ccc(-c2ccc3ncc4c(c3c2)n([C@@H]2CCOCC2(C)C)c(=O)n4C)cn1 | 3.3 h |

Tested on: not listed separately
Assay: Intrinsic clearance in human hepatocyte assessed per 10^6 cells
Assay type: ADME, cell-based
Settings: hepatocytes, read-out: CLH

| Compound | hepatocyte CLint |
| --- | --- |
| CC(C)n1c(=O)n(C)c2cnc3cc(F)c(-c4ccc(OCCCN(C)C)nc4)cc3c21 | 6.7 µL/min/1e6 cells |
| CO[C@H]1C[C@H](n2c(=O)n(C)c3cnc4ccc(-c5ccc(OCCCN6CCCCC6)nc5)cc4c32)C1 | 2.6 µL/min/1e6 cells |
| COCc1ccc(-c2ccc3ncc4c(c3c2)n([C@@H]2CCOCC2(C)C)c(=O)n4C)cn1 | < 1 µL/min/1e6 cells |

Tested on: not listed separately
Assay: Bioavailability in rat at 1 mg/kg,po or 0.5 mg/kg,iv administration measured for 24 hrs by LC-MS/MS analysis
Assay type: ADME, organism-based
Settings: in vivo

| Compound | bioavailability |
| --- | --- |
| CC(C)n1c(=O)n(C)c2cnc3cc(F)c(-c4ccc(OCCCN(C)C)nc4)cc3c21 | 48% |
| CO[C@H]1C[C@H](n2c(=O)n(C)c3cnc4ccc(-c5ccc(OCCCN6CCCCC6)nc5)cc4c32)C1 | 19% |
| COCc1ccc(-c2ccc3ncc4c(c3c2)n([C@@H]2CCOCC2(C)C)c(=O)n4C)cn1 | 39% |
| CC(C)n1c(=O)n(C)c2cnc3cc(F)c(-c4ccc(OCCCN5CCCCC5)nc4)cc3c21 [AZD-1390] | 74% |

Tested on: not listed separately
Assay: Plasma protein binding in dog assessed as unbound fraction incubated for 16 hrs by equilibrium dialysis based UPLC-MS/MS analysis
Assay type: ADME, cell-free, Canis lupus familiaris
Settings: not given

| Compound | fraction unbound at 16 h |
| --- | --- |
| CC(C)n1c(=O)n(C)c2cnc3cc(F)c(-c4ccc(OCCCN(C)C)nc4)cc3c21 | 0.42 |
| CO[C@H]1C[C@H](n2c(=O)n(C)c3cnc4ccc(-c5ccc(OCCCN6CCCCC6)nc5)cc4c32)C1 | 0.22 |
| COCc1ccc(-c2ccc3ncc4c(c3c2)n([C@@H]2CCOCC2(C)C)c(=O)n4C)cn1 | 0.23 |
| CC(C)n1c(=O)n(C)c2cnc3cc(F)c(-c4ccc(OCCCN5CCCCC5)nc4)cc3c21 [AZD-1390] | 0.25 |

Biological target: Serine-protein kinase ATM (Homo sapiens, UniProt Q13315)
Assay: Inhibition of ATM in human HT-29 cells incubated for 2 hrs by Alexa Fluor 488/Hoeschst staining based plate reader assay
Assay type: cell-based
Settings: not given

| Compound | IC50 |
| --- | --- |
| CC(C)n1c(=O)n(C)c2cnc3cc(F)c(-c4ccc(OCCCN5CCCCC5)nc4)cc3c21 [AZD-1390] | 0.000794 µM |

Tested on: not listed separately
Assay: Aqueous solubility of the compound in pH 7.4
Assay type: physicochemical
Settings: buffer

| Compound | solubility |
| --- | --- |
| CC(C)n1c(=O)n(C)c2cnc3cc(F)c(-c4ccc(OCCCN(C)C)nc4)cc3c21 | 680 µM (≈ 298 µg/mL) |
| CO[C@H]1C[C@H](n2c(=O)n(C)c3cnc4ccc(-c5ccc(OCCCN6CCCCC6)nc5)cc4c32)C1 | > 1000 µM |
| COCc1ccc(-c2ccc3ncc4c(c3c2)n([C@@H]2CCOCC2(C)C)c(=O)n4C)cn1 | 521 µM (≈ 225 µg/mL) |
| CC(C)n1c(=O)n(C)c2cnc3cc(F)c(-c4ccc(OCCCN5CCCCC5)nc4)cc3c21 [AZD-1390] | 693 µM (≈ 331 µg/mL) |

Tested on: not listed separately
Assay: Half life in rat at 1 mg/kg,po or 0.5 mg/kg,iv administration measured for 24 hrs by LC-MS/MS analysis
Assay type: ADME, organism-based
Settings: in vivo

| Compound | half-life |
| --- | --- |
| CC(C)n1c(=O)n(C)c2cnc3cc(F)c(-c4ccc(OCCCN(C)C)nc4)cc3c21 | 3.2 h |
| CO[C@H]1C[C@H](n2c(=O)n(C)c3cnc4ccc(-c5ccc(OCCCN6CCCCC6)nc5)cc4c32)C1 | 4 h |
| COCc1ccc(-c2ccc3ncc4c(c3c2)n([C@@H]2CCOCC2(C)C)c(=O)n4C)cn1 | 1.1 h |

Biological target: DNA-dependent protein kinase catalytic subunit (Homo sapiens, UniProt P78527)
Assay: Inhibition of DNA-PK (unknown origin)
Settings: not given

DNA-dependent protein kinase catalytic subunit, sequence (P78527 whole entry): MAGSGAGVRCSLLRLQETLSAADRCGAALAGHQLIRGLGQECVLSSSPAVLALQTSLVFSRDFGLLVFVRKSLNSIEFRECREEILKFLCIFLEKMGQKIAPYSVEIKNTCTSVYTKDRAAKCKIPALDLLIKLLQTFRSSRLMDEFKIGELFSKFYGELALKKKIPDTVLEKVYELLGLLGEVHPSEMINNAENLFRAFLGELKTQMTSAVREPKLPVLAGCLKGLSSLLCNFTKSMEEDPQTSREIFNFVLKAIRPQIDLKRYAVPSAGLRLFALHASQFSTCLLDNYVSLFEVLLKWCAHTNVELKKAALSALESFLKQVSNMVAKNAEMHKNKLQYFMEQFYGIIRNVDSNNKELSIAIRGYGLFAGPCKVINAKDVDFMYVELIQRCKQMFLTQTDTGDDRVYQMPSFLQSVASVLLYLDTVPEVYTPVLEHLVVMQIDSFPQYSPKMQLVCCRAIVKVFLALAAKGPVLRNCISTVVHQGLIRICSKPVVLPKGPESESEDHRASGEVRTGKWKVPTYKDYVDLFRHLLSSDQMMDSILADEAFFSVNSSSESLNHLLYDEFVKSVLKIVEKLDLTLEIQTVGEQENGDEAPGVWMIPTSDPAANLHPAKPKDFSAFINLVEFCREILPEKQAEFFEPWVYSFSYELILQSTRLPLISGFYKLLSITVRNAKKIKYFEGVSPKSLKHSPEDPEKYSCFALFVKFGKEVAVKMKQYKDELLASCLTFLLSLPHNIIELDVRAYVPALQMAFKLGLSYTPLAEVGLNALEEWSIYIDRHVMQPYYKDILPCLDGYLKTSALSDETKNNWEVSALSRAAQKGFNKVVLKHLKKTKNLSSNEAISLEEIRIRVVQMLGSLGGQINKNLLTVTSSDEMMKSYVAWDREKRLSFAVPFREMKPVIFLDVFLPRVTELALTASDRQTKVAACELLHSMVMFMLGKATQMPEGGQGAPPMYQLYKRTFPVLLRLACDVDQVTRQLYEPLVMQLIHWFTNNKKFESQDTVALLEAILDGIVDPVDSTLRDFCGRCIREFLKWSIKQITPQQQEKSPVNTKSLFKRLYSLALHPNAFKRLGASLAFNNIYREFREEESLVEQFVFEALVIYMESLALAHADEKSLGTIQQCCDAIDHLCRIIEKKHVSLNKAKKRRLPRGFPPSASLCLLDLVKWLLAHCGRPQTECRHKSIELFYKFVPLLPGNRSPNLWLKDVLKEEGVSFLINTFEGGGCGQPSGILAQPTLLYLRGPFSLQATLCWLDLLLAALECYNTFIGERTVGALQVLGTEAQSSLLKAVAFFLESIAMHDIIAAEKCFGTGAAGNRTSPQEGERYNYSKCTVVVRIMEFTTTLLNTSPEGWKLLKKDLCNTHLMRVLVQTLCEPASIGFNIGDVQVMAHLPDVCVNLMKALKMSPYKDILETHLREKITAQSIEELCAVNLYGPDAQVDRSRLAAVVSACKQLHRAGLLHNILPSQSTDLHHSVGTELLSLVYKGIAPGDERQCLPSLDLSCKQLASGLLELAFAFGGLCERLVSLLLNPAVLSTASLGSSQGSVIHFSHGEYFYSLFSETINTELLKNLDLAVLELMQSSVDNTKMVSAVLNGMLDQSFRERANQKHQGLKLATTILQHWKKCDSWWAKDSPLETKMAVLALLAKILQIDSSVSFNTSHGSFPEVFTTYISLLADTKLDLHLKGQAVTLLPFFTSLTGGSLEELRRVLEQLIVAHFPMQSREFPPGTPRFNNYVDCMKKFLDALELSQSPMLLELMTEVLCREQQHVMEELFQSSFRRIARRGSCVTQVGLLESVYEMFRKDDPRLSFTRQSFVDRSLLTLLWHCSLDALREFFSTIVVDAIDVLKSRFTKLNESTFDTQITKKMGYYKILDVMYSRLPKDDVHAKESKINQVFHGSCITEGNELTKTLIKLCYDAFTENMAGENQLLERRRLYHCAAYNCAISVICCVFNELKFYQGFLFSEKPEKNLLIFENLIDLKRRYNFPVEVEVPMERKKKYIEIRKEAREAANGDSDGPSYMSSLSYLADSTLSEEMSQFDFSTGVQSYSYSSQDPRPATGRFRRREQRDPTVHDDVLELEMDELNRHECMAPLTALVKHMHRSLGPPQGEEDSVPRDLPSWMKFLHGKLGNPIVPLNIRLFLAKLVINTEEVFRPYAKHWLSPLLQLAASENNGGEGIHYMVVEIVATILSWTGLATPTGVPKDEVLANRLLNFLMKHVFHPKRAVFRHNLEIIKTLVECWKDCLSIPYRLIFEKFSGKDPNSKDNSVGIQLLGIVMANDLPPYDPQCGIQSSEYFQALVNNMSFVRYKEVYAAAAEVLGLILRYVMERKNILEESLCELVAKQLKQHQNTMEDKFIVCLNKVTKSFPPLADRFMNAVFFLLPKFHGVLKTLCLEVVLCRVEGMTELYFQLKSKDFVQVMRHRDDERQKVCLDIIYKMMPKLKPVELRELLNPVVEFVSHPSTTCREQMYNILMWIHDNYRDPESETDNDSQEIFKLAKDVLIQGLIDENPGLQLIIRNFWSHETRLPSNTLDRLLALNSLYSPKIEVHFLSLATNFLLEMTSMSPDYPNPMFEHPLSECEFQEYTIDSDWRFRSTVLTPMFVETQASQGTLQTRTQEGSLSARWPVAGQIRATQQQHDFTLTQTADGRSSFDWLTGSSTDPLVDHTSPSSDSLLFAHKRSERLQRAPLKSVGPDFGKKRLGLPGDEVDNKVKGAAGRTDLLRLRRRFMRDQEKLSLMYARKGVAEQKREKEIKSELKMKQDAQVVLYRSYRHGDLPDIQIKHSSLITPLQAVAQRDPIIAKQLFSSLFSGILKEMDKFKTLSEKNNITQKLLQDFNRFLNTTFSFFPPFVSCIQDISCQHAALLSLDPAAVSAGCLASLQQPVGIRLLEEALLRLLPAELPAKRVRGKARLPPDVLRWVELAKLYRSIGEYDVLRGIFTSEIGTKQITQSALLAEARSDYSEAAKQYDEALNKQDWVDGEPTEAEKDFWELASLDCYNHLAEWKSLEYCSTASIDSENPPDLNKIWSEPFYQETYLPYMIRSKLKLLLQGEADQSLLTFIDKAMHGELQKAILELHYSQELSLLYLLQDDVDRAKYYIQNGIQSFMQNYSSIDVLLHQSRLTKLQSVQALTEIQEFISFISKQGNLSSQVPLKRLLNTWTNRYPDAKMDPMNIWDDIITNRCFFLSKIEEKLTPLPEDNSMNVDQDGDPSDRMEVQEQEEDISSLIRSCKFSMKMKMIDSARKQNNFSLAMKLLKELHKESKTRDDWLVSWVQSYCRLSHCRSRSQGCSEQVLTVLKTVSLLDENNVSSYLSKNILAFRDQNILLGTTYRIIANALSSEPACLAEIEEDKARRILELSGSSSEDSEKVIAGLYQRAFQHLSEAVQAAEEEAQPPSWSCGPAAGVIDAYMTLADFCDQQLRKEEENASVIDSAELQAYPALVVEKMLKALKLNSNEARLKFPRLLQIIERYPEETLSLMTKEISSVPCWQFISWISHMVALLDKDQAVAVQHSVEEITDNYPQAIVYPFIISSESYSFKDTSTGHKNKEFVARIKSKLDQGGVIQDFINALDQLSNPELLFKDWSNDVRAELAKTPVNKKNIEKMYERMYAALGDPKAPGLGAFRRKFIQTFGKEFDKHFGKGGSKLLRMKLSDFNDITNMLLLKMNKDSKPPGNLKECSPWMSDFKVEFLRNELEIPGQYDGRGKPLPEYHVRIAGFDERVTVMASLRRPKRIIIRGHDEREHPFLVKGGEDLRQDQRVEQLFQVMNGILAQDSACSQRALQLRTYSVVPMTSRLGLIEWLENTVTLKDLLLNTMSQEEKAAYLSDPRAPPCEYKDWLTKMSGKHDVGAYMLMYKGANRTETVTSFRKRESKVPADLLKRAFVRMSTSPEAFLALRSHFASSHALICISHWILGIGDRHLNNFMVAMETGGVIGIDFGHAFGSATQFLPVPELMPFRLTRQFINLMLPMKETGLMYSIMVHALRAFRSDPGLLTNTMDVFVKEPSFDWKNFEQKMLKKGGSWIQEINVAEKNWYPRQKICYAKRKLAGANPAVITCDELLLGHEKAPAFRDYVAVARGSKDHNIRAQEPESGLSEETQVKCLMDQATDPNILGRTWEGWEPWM

| Compound | IC50 |
| --- | --- |
| CC(C)n1c(=O)n(C)c2cnc3cc(F)c(-c4ccc(OCCCN(C)C)nc4)cc3c21 | > 31.6 µM |
| COCc1ccc(-c2ccc3ncc4c(c3c2)n([C@@H]2CCOCC2(C)C)c(=O)n4C)cn1 | 1.58 µM |
| CC(C)n1c(=O)n(C)c2cnc3cc(F)c(-c4ccc(OCCCN5CCCCC5)nc4)cc3c21 [AZD-1390] | > 31.6 µM |

Tested on: not listed separately
Assay: Apparent permeability across apical to basolateral side in dog MDCKII-MDR1 cells overexpressing BCRP at 0.1 uM incubated for 90 mins by LC-MS/MS analysis
Assay type: ADME, cell-based, Canis lupus familiaris, MDCK-MDR1
Settings: not given

| Compound | Papp A→B at […], 0.1 µM |
| --- | --- |
| CC(C)n1c(=O)n(C)c2cnc3cc(F)c(-c4ccc(OCCCN(C)C)nc4)cc3c21 | 23 ×10⁻⁶ cm/s |
| CO[C@H]1C[C@H](n2c(=O)n(C)c3cnc4ccc(-c5ccc(OCCCN6CCCCC6)nc5)cc4c32)C1 | 17 ×10⁻⁶ cm/s |
| COCc1ccc(-c2ccc3ncc4c(c3c2)n([C@@H]2CCOCC2(C)C)c(=O)n4C)cn1 | 39 ×10⁻⁶ cm/s |
| CC(C)n1c(=O)n(C)c2cnc3cc(F)c(-c4ccc(OCCCN5CCCCC5)nc4)cc3c21 [AZD-1390] | 17 ×10⁻⁶ cm/s |

Tested on: not listed separately
Assay: Volume of distribution at steady state in rat at 1 mg/kg,po or 0.5 mg/kg,iv administration measured for 24 hrs by LC-MS/MS analysis
Assay type: ADME, organism-based
Settings: in vivo

| Compound | Vdss |
| --- | --- |
| CC(C)n1c(=O)n(C)c2cnc3cc(F)c(-c4ccc(OCCCN(C)C)nc4)cc3c21 | 4.1 L/kg |
| CO[C@H]1C[C@H](n2c(=O)n(C)c3cnc4ccc(-c5ccc(OCCCN6CCCCC6)nc5)cc4c32)C1 | 2.4 L/kg |
| COCc1ccc(-c2ccc3ncc4c(c3c2)n([C@@H]2CCOCC2(C)C)c(=O)n4C)cn1 | 1.9 L/kg |
| CC(C)n1c(=O)n(C)c2cnc3cc(F)c(-c4ccc(OCCCN5CCCCC5)nc4)cc3c21 [AZD-1390] | 3 L/kg |

Biological target: Phosphatidylinositol 4,5-bisphosphate 3-kinase catalytic subunit alpha isoform (Homo sapiens, UniProt P42336)
Assay: Inhibition of PI3Kalpha in human BT-474 cells incubated for 140 mins by ELISA
Assay type: cell-based
Settings: not given

Phosphatidylinositol 4,5-bisphosphate 3-kinase catalytic subunit alpha isoform, sequence (P42336 whole entry, canonical isoform): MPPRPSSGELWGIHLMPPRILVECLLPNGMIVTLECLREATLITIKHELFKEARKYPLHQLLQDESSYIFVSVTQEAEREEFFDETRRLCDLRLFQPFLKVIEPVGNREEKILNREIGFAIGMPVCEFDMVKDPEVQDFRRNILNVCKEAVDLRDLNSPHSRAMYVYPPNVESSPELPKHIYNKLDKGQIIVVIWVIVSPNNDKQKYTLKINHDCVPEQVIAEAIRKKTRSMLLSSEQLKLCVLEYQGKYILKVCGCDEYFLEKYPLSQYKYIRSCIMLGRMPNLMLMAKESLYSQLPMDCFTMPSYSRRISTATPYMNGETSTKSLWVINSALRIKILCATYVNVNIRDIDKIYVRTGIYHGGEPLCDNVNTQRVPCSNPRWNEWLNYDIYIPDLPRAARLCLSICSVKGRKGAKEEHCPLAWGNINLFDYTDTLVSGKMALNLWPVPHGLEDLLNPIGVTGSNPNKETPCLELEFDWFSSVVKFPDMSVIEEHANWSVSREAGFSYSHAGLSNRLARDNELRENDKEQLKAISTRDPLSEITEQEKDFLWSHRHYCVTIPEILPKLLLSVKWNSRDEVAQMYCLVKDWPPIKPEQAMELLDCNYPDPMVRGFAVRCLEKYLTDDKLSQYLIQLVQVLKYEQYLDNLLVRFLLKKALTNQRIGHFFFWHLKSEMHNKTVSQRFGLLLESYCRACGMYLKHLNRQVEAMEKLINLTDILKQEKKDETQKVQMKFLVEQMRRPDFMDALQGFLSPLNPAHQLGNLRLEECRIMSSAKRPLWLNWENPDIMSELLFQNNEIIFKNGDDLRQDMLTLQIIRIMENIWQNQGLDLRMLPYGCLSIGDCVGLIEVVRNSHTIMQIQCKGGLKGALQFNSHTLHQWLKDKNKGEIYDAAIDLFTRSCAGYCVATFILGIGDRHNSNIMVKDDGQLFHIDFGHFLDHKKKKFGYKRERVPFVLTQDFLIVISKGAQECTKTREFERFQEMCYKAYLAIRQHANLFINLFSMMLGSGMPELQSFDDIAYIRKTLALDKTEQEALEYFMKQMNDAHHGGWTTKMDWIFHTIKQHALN

| Compound | IC50 |
| --- | --- |
| CC(C)n1c(=O)n(C)c2cnc3cc(F)c(-c4ccc(OCCCN(C)C)nc4)cc3c21 | 15.8 µM |
| CO[C@H]1C[C@H](n2c(=O)n(C)c3cnc4ccc(-c5ccc(OCCCN6CCCCC6)nc5)cc4c32)C1 | 2 µM |
| COCc1ccc(-c2ccc3ncc4c(c3c2)n([C@@H]2CCOCC2(C)C)c(=O)n4C)cn1 | > 5.01 µM |
| CC(C)n1c(=O)n(C)c2cnc3cc(F)c(-c4ccc(OCCCN5CCCCC5)nc4)cc3c21 [AZD-1390] | > 12.6 µM |

Biological target: Serine/threonine-protein kinase ATR (Homo sapiens, UniProt Q13535)
Assay: Inhibition of ATR in human HT-29 cells incubated for 2 hrs by Alexa Fluor 488/Hoeschst staining based plate reader assay
Assay type: cell-based
Settings: not given

| Compound | IC50 |
| --- | --- |
| CC(C)n1c(=O)n(C)c2cnc3cc(F)c(-c4ccc(OCCCN(C)C)nc4)cc3c21 | > 31.6 µM |
| CC(C)n1c(=O)n(C)c2cnc3cc(F)c(-c4ccc(OCCCN5CCCCC5)nc4)cc3c21 [AZD-1390] | > 31.6 µM |

Tested on: not listed separately
Assay: Plasma protein binding in human assessed as unbound fraction incubated for 16 hrs by equilibrium dialysis based UPLC-MS/MS analysis
Assay type: ADME, cell-free
Settings: not given

| Compound | fraction unbound at 16 h |
| --- | --- |
| CC(C)n1c(=O)n(C)c2cnc3cc(F)c(-c4ccc(OCCCN(C)C)nc4)cc3c21 | 0.32 |
| CO[C@H]1C[C@H](n2c(=O)n(C)c3cnc4ccc(-c5ccc(OCCCN6CCCCC6)nc5)cc4c32)C1 | 0.19 |
| COCc1ccc(-c2ccc3ncc4c(c3c2)n([C@@H]2CCOCC2(C)C)c(=O)n4C)cn1 | 0.08 |
| CC(C)n1c(=O)n(C)c2cnc3cc(F)c(-c4ccc(OCCCN5CCCCC5)nc4)cc3c21 [AZD-1390] | 0.26 |

Tested on: not listed separately
Assay: Plasma protein binding in rat assessed as unbound fraction incubated for 16 hrs by equilibrium dialysis based UPLC-MS/MS analysis
Assay type: ADME, cell-free
Settings: not given

| Compound | fraction unbound at 16 h |
| --- | --- |
| CC(C)n1c(=O)n(C)c2cnc3cc(F)c(-c4ccc(OCCCN(C)C)nc4)cc3c21 | 0.17 |
| CO[C@H]1C[C@H](n2c(=O)n(C)c3cnc4ccc(-c5ccc(OCCCN6CCCCC6)nc5)cc4c32)C1 | 0.04 |
| COCc1ccc(-c2ccc3ncc4c(c3c2)n([C@@H]2CCOCC2(C)C)c(=O)n4C)cn1 | 0.14 |
| CC(C)n1c(=O)n(C)c2cnc3cc(F)c(-c4ccc(OCCCN5CCCCC5)nc4)cc3c21 [AZD-1390] | 0.04 |

Tested on: not listed separately
Assay: Lipophilicity, logD of the compound at pH 7.4
Assay type: physicochemical
Settings: buffer

| Compound | logD |
| --- | --- |
| CC(C)n1c(=O)n(C)c2cnc3cc(F)c(-c4ccc(OCCCN(C)C)nc4)cc3c21 | 2.1 |
| CO[C@H]1C[C@H](n2c(=O)n(C)c3cnc4ccc(-c5ccc(OCCCN6CCCCC6)nc5)cc4c32)C1 | 2.4 |
| COCc1ccc(-c2ccc3ncc4c(c3c2)n([C@@H]2CCOCC2(C)C)c(=O)n4C)cn1 | 2.7 |
